# Test results taken from patent US9066516B2, “Uses of thaxtomin and thaxtomin compositions as herbicides” (priority 2008, dated 2015).
# Assays:
# Format in all cases: in vivo
# [1] = system: Lambsquarter—Chenopodium album; test: Greenhouse weed control by S. acidiscabies extract (Example 4); settings: Common lambsquarter; 0.5 mg/mL
# Method: (§1) A strain of S. acidiscabies (ATCC-49003) is grown in oat bran broth for 5 days (25° C., 200 rpm). The whole cell broth with thaxtomin A is extracted using XAD resin. The dried crude extract was resuspended in 4% ethanol and 0.02% non-ionic surfactant at a concentration of 10 mg/mL, and the solutions with two different concentrations of thaxtomin A (0.5 and 1.0 mg/mL) are tested the following broadleaf weed species:
# (§2) All plant species are tested in 4″×4″ plastic pots in three replicates. The untreated control plants are sprayed with the carrier solution (4% Ethanol, 0.02% glycosperse) and the positive control plants with Roundup at a rate corresponding to 1 fl. oz/acre. Treated plants are kept in a greenhouse under 12 h light/12 h dark conditions.
# [2] = system: Nightshade, Black—Solanum nigrum; test: as above; settings: 0.5 mg/mL
# Method: as §1, §2
# redstem = test: Field study on rice, weed count (Example 6); settings: Thaxtomin A 180 g/acre; per plot
# Method: (§3) The efficacy of thaxtomin A derived from a liquid culture of S. acidiscabies is tested in a field study on rice using 4.9 sq-ft plots surrounded by a metal ring. Treatments with either thaxtomin A or thaxtomin A in combination with lemongrass oil (formulated as GreenMatch EX) or cyhalofop (formulated as Clincher CA) were done using a hand-held sprayer with a water volume corresponding to 57 gallons per acre. Rice (variety M209) was grown until maturity and harvested by hand for yield and weed count assessment. Results of yield (kg/ha), and numbers of redstem, small-flower umbrella sedge, and sprangletop in each plot are presented in Table 3 below.
# [3] = system: small-flower umbrella sedge; test: Field study on rice, weed count (Example 6); settings: Thaxtomin A 180 g/acre, per plot
# Method: as §3
# sprangletop = test: Field study on rice, weed count (Example 6); settings: Thaxtomin A 180 g/acre, per plot
# Method: as §3
# dandelion = test: Greenhouse synergy test MBI-005 + turf herbicides (Example 11); settings: 14 days
# Method: (§4) The common turf weeds dandelion and plantain were used in testing for synergy between MBI-005 and 2, 4- or dicamba, two common turf herbicides.
# (§5) There were 3 replicates per treatment which were sprayed with approximately ⅔ ml per replicate. The treatments were completely randomized and kept in a greenhouse at 25° C. The efficacy was rated at 7 and 14 days post treatment.
# plantain = test: as above; settings: 14 days
# Method: as §4, §5
# barnyard grass = test: Post-emergent MBI-005 + rice herbicides on barnyard grass (Example 18); settings: 14 days
# Method: Ten seedlings in 2.5 cm square pots containing plant growth mix were sprayed to full coverage using a hand sprayer. Negative controls were sprayed with water. Pots were randomly placed in a growth room at 25° C. and 50% RH, and watered as necessary. Treatments were replicated three times and evaluated at 7 and 14 days for visual % damage, with 0% indicating no damage and 100% indicating plant death.
# Synergistic effect were noted between MBI-005 and all three rice herbicides, 14 days after treatment. Synergy was calculated as the ratio of observed (E) to expected (E/Ee) percent control using Colby's formula.
smiles,measurement,setting,value
CN1C(=O)[C@](O)(Cc2cccc(O)c2)N(C)C(=O)[C@@H]1Cc1c[nH]c2cccc([N+](=O)[O-])c12 [thaxtomin A],stunting,[1],severe stunting
same,stunting,[2],severe stunting
same,# of redstem,redstem,0.5b
same,# of sedge,[3]; listed as Thaxtomin A,1.0a
same,# of sedge,[3]; listed as thaxtomin,significantly reduced the number of sedges
same,# of sprangletop,sprangletop; listed as Thaxtomin A,76.0a
same,# of sprangletop,sprangletop; listed as thaxtomin,no effect
same,% Control MBI-005,"dandelion; MBI-005 0.1 mg/mL (2, 4-D line)",20.0%
same,% Control MBI-005,dandelion; MBI-005 0.1 mg/mL (dicamba line),20.0%
same,% Control MBI-005,plantain; MBI-005 0.12 mg/mL (dicamba line),10.0%
same,% Control MBI-005,"plantain; MBI-005 0.24 mg/mL (2, 4-D line)",25.0%
same,% Control MBI-005,barnyard grass; MBI-005 12.5% of the label rate (Penoxsulam line),17.5%
same,% Control MBI-005,barnyard grass; MBI-005 25% of the label rate (Bispyribac-sodium line),41.7%
